Source: BindingDB's records for doi:10.7270/Q2M32T6M (Vanderbilt Screening Center for GPCRs, Ion Channels and …, 2009)
pEC50: −log10 of the molar value.

molecular target: T1, Solute carrier family 12 member 5 (Homo sapiens, UniProt Q9H2X9); assay: KCC2 modulator potency by thallium flux, dose response, cell-based, HEK293 KCC2, FluoZin-2 fluorescence (AID 1736); details: not given
T1 sequence (Q9H2X9 whole entry): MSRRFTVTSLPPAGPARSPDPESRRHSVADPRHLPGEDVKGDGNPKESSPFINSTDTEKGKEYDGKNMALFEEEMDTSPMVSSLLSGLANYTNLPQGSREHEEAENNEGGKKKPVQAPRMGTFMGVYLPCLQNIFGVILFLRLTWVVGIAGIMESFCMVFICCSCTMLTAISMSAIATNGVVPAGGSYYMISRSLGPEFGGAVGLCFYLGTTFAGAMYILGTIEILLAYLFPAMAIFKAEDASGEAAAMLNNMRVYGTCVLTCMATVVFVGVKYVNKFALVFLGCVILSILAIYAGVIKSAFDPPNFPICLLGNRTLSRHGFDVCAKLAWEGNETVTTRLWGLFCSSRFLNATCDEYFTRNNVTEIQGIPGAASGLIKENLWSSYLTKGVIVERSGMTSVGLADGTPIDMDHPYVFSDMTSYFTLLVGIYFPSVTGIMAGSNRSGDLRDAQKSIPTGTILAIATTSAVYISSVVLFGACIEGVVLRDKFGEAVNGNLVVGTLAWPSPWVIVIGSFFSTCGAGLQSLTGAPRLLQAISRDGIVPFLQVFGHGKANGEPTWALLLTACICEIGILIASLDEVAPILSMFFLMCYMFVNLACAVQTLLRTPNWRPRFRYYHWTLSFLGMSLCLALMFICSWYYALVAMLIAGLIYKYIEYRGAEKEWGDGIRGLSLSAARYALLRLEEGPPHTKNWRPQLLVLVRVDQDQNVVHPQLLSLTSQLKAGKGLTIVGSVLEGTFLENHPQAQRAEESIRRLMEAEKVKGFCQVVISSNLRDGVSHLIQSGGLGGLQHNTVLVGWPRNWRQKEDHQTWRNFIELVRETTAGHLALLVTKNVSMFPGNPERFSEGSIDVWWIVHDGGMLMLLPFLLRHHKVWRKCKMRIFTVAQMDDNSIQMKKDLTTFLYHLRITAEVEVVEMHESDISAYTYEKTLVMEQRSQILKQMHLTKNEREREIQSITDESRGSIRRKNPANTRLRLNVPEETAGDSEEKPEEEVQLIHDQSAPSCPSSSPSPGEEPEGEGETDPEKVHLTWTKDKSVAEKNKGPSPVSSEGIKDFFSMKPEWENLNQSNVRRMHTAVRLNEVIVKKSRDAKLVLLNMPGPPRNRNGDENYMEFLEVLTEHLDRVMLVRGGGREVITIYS

Row | pEC50 | Structure (SMILES)
1 | 5.28 | CCOC(=O)c1c(C)[nH]c(N=Nc2ccccc2)c1C [(5Z)-2,4-dimethyl-5-(phenylhydrazinylidene)-3-pyrrolecarboxylic acid ethyl ester]
2 | 5.63 | O=C(Nc1cccnc1)c1ccc(COc2ccccc2Br)o1 [5-[(2-bromanylphenoxy)methyl]-N-pyridin-3-yl-furan-2-carboxamide]
3 | 5.69 | Cc1ccc(-c2csc(NC(=O)CCNC(=O)c3ccccc3Cl)n2)cc1 [2-chloranyl-N-[3-[[4-(4-methylphenyl)-1,3-thiazol-2-yl]amino]-3-oxidanylidene-propyl]benzamide]
4 | 5.07 | Cn1cc(C(=O)C(=O)N2CCCc3ccccc32)c2ccccc21 [1-(3,4-dihydro-2H-quinolin-1-yl)-2-(1-methyl-3-indolyl)ethane-1,2-dione]
5 | 5.71 | O=C(Cn1nc(-c2ccccc2)ccc1=O)NCc1ccc2c(c1)OCO2 [2-(6-keto-3-phenyl-pyridazin-1-yl)-N-piperonyl-acetamide]
6 | 4.42 | NC1=NC[C@@H](Cc2ccc(O)cc2)N1CCc1cc(C(F)(F)F)cc(C(F)(F)F)c1
7 | 5.64 | CC(C)(C)NC(=O)C(c1cccs1)N(CC1CCCO1)C(=O)c1ccc(-c2ccccc2)[nH]1 (stereo unspecified) [N-[2-(tert-butylamino)-2-oxo-1-thiophen-2-ylethyl]-N-(2-oxolanylmethyl)-5-phenyl-1H-pyrrole-2-carboxamide]
8 | 4.72 | CCOC(=O)c1cc2c(ccn2-c2ccc(F)cc2)n1CC(=O)NC(C)(C)C [4-[2-(tert-butylamino)-2-keto-ethyl]-1-(4-fluorophenyl)pyrrolo[3,2-b]pyrrole-5-carboxylic acid ethyl ester]
9 | 6.19 | COc1ccc(-c2cc(CCCC(=O)NCCc3ccccc3)no2)cc1 [4-[5-(4-methoxyphenyl)-1,2-oxazol-3-yl]-N-(2-phenylethyl)butanamide]
10 | 5.77 | O=C(CSc1ccc(-c2cccs2)nn1)Nc1ccccc1F [MLS000621184]
11 | 4.72 | CC(C)(C)NC(=O)C(c1ccncc1)N(Cc1ccco1)C(=O)c1ccc(-c2ccccc2)[nH]1 (stereo unspecified) [N-[2-(tert-butylamino)-2-oxo-1-pyridin-4-ylethyl]-N-(furan-2-ylmethyl)-5-phenyl-1H-pyrrole-2-carboxamide]
12 | 4.37 | CC1CCN(C(=O)c2ccc(SCc3ccccc3F)c([N+](=O)[O-])c2)CC1 [1-{4-[(2-fluorobenzyl)thio]-3-nitrobenzoyl}-4-methylpiperidine]
13 | 5.65 | COc1ccc(S(=O)(=O)N(C)CC(=O)N2CCN(Cc3ccccc3)CC2)cc1C [4-methoxy-N,3-dimethyl-N-[2-oxidanylidene-2-[4-(phenylmethyl)piperazin-1-yl]ethyl]benzenesulfonamide]
14 | 4.64 | Cc1noc(C)c1S(=O)(=O)N1CCC(C(=O)N2CCN(c3ccc(F)cc3)CC2)CC1 [1-({1-[(3,5-dimethylisoxazol-4-yl)sulfonyl]piperidin-4-yl}carbonyl)-4-(4-fluorophenyl)piperazine]

same assay, conditions: inactive by the depositor's call

Row | pEC50 | Structure (SMILES)
15 | 3.53 | O=C(CCc1ccccc1)NC(=S)Nc1cccc(Br)c1 [MLS000583293]
16 | 3.34 | O=C(COc1ccc2ccccc2c1Br)Nn1cnnc1 [2-(1-bromanylnaphthalen-2-yl)oxy-N-(1,2,4-triazol-4-yl)ethanamide]
